The record followed here is patent US20040109905A1, “Method and composition of anthocyanin-rich berry extracts that prevents or inhibits angiogenesis and helicobacter pylori and acts as a powerful antioxidant that provides various health benefits” (priority 2002, published 2004).

The subject of the assay is H2O2-induced expression of VEGF. Put plainly: H2O2-induced VEGF expression in HaCaT keratinocytes (ELISA). Format: cell-based, human. Particulars: for VEGF: HaCaT cells, FA 200 nM, catechin 100 nM, rutin 1 μM, α-tocopherol 10 μM for 12 hours, then H2O2 150 μM for 12 hours, Mean±SD of three experiments; for effect on H2O2 (oxidant)-inducible VEGF expression, in words: human keratinocytes. The protocol: The cells used for the test were immortalized HaCaT human keratinocytes grown in Dulbecco's modified Eagle's medium (provided by Life Technologies of Gaithersburg, Md.) and supplemented with 10% fetal bovine serum, 100 U/mL penicillin and 100 μg/mL streptomycin.
Solutions incorporating berry extracts or GSPE were prepared fresh in dimethyl sulfoxide at concentrations such that the final concentration of the solvent in cell suspension never exceeded 0.1% prior to cell treatment, the DMSO solutions were passed through a […] filter for sterilization. Respective controls were treated with equal volumes of dimethyl sulfoxide. The test cells were pretreated with the berry solutions.
Test cells were seeded onto multiple well culture-plates. After 24 hours of growth at 80% confluency, the cells were synchronized by culturing them in a serum-deprived medium for 12 hours. Following the synchronization, the cells were treated with H2O2 or TNFα. The berry treatment protocols are described in the legends for Tables 2 through 4 below. A serum-free medium was selected to avoid any possible interaction between the serum components and H2O2. The VEGF level in the medium was determined using a commercially available ELISA kit, marketed by R and D systems of Minneapolis, Minn.
HaCaT cells were seeded at density 0.45×10^6/well/3 ml. After 24 hr, growth media was chanced to serum free RPMI and berry samples (50 μg/ml) or GSPE (25 μg/ml) were added. After 12 hours, cells were challenged with H2O2 (150 μM). After 12 hours of activation with H2O2, media was collected for ELISA. *p<0.05, higher in response to H2O2 treatment; *lower compared to H2O2 treated cells. Mean±SD of three experiments.
HaCaT cells were seeded at density 0.45×10^6/well/3 ml. After 24 hr, growth media was chanced to serum free RPMI and either pure flavonoids ([…], FA 200 nM; catechin, Cat 100 nM, ruti, rut 1 μM) at concentrations observed in berry samples or a α-tocopherol (10 μM as reference antioxidant) were added. After 12 hours, cells were challenged with H2O2 (150 μM). After 12 hours of activation with H2O2, media was collected for ELISA. *p<0.05, higher in response to H2O2 treatment; *lower compared to H2O2 treated cells. Mean±SD of three experiments.
On the technique in general: In an ELISA, binding on a coated surface is turned into a signal by an enzyme label.

For `C[C@@H]1O[C@@H](OC[C@H]2O[C@@H](Oc3c(-c4ccc(O)c(O)c4)oc4cc(O)cc(O)c4c3=O)[C@H](O)[C@@H](O)[C@@H]2O)[C@H](O)[C@H](O)[C@H]1O` [Rutin], the “VEGF” value was 209.06 ± 59.28 pg/mL.

With `COc1cc(/C=C/C(=O)O)ccc1O` [Ferrulic Acid], the “VEGF” value was found to be 319.19 ± 21.05 pg/mL and the “effect on H2O2 (oxidant)-inducible VEGF expression, in words” value (from here on “effect on H2O2”) is reported as “suppress oxidant-inducible VEGF expression to some degree”.

In the case of `Cc1c(C)c2c(c(C)c1O)CC[C@@](C)(CCC[C@H](C)CCC[C@H](C)CCCC(C)C)O2` [α-tocopherol], the “VEGF” value came to 397.10 ± 64.91 pg/mL and the “effect on H2O2” value is reported as “did not influence inducible VEGF expression”.

As to Catechin, the “VEGF” value was 285.89 ± 51.13 pg/mL and the “effect on H2O2” value was “suppress oxidant-inducible VEGF expression to some degree”.
